The subject of data set [1] is Capillary endothelial cells (EC), isolated from bovine adrenal cortex. Put plainly: bFGF-stimulated capillary EC proliferation assay. Type of data set: cell-based. The method, then: Capillary endothelial cells (EC), isolated from bovine adrenal cortex, were a kind gift of Dr. Judah Folkman (Children's Hospital, Boston) and were maintained in DMEM (Gibco) supplemented with 10% calf serum (HyClone) and 3 ng/ml bFGF, and grown at 37° C. in 10% CO2. Capillary EC proliferation was measured as previously reported by us (Moses et al., 1990; Moses et al., 1992; O'Reilly et al., 1994; Moses et al., 1999) using a modification of the method of Connolly and coworkers (and verified by cell counting using a Coulter Counter) (Connolly et al., 1986). Briefly, capillary EC were plated on pre-gelatinized 96 well plates at a density of 2,000 cells per well in DMEM supplemented with 5% calf serum and allowed to attach for 24 hours. The next day, cells were treated with fresh media with or without 1 ng/ml bFGF and challenged with the test proteins at various concentrations. All samples were tested in duplicate. Control wells contained cell treated with media alone or media with bFGF. After 72 hours, the media was removed and the cells were lysed in buffer containing Triton X-100 and the phosphatase substrate p-nitrophenyl phosphate. After a two-hour incubation at 37° C., NaOH was added to each well to terminate the reaction and cell density was determined by calorimetric analysis using a SpectraMax 190 multiwell plate reader (Molecular Devices).

Data set [2] concerns embryonic angiogenesis in the chick chorioallantoic membrane. The data set is described as follows: Chick chorioallantoic membrane assay (CAM). The data set is classed as in vivo. The conditions noted are these: methylcellulose disc, 48 hours. The method, then: The chick CAM assay was conducted as previously reported by us (Moses et al., 1990; Moses et al., 1992; O'Reilly et al., 1994; Moses et al., 1999; Fang et al., 2000) Briefly, three day old chick embryos were removed from their shells and incubated in plastic Petri dishes for three days. On embryonic day 6, samples and controls mixed into methylcellulose discs were applied to the surfaces of developing CAMs, above the dense subectodermal plexus. After 48 hours of incubation, the eggs were examined for vascular reactions under a dissecting scope (60×) and photographed. All determinations were made by 3 independent members of the laboratory, in a double-blinded fashion.

The subject of data set [3] is Capillary EC. The data set is described as follows: Cell cycle analysis by flow cytometry. The data set is classed as cell-based, bovine. The conditions noted are these: synchronized, bFGF-stimulated, 16 hours; for cells in G1 / cells in G2/M: IC50 dose of Loop 6 or equivalent dose of T2-Tail. The method, then: Capillary EC were plated at a density of 100,000 cells per plate unto pre-gelatinized 60 mm dishes in DMEM supplemented with 5% calf serum and allowed to attach overnight. The next day, the media was replaced with DMEM supplemented with 0.4% calf serum in order to synchronize the cells by serum starvation. After 36 hours, synchronized cells were stimulated with DMEM containing 5% calf serum plus 1 ng/ml bFGF, and then treated with an IC50 dose of Loop 6 or an equivalent dose of the T2-Tail peptide as control. After 16 hours, the cells were rinsed with PBS, trypsinized and collected by centrifugation. Pelleted cells were rinsed again with PBS and resuspended in 1 ml of 80% ethanol in PBS, and stored at −20° C. overnight. The next morning, cells were collected by centrifugation and resuspended in 500 μl of staining solution (0.1% sodium citrate, 100 μg/ml RNAse A, 0.1% Nonidet-P40, 50 μg/ml propidium iodide). After 30 minutes, DNA content of the cells and the percentages of cells in the various stages of the cell cycle were determined using a FACSVantage SE (Becton Dickinson, Franklin Lanes, N.J.). FACS analysis was performed at the Howard Hughes Institute of Medicine FACS Core Facility at Children's Hospital. All samples were tested in at least duplicate. Histograms of representative experiments for each test condition were created using WinMDI 2.8 (The Scripps Research Institute, La Jolla, Calif.).
On the technique in general: A flow cytometer gives signals particle by particle.

In data set [4] the test system is Capillary EC. Put plainly: Apoptosis assay (TUNEL, DAPI). The data set is classed as cell-based, bovine. The conditions noted are these: bFGF-stimulated, 6 hours; Loop 6 at IC50 dose, wortmannin 100 mM. The method, then: In situ detection of cell death was determined using terminal deoxynucleotidyl transferase dUTP nick-end labeling (TUNEL) following manufacturer's instructions (In Situ Cell Death Detection Kit, Roche Applied Science, Indianapolis, Ind.). Capillary EC were plated at a density of 10,000 cells per well on pre-gelatinized Lab-Tek Chamber Slides (Nalge Nunc, Naperville, Ill.) in DMEM supplemented with 5% calf serum and allowed to attach for 24 hours. The next day, cells were treated with fresh media supplemented with 1 ng/ml bFGF and challenged with an IC50 dose of Loop 6 or […] wortmannin, a dose previously reported to induce apoptosis of capillary E (Flusberg et al., 2001). Cells stimulated with bFGF alone were also used as controls. All samples were tested in duplicate. After 6 hours, the cells were rinsed with PBS and then fixed in 4% paraformaldehyde for 1 hour at room temperature. Fixed cells were again rinsed with PBS and permeabilised with 0.1% Triton X-100 in 0.1% sodium citrate on ice for 2 minutes. After two more rinses in PBS, the cells were exposed to TUNEL reaction mixture and incubated at 37° C. […] Apoptotic nuclei were detected using a Nikon Eclipse TE300 microscope (Nikon Instruments, Melville, N.Y.).

For data set [5], the system named is vascular smooth muscle cells. The data set is described as follows: Vascular smooth muscle cell proliferation (data not shown). The data set is classed as cell-based.
Data set [6] has as its system Cyclin D1, Cyclin E, Cyclin A and p27 in capillary EC lysates. The data set is described as follows: Immunoblot analyses of cell cycle associated proteins. The data set is classed as cell-based, bovine. The settings on record: IC50 dose, 16 hours, versus bFGF-stimulated controls. The method, then: Western analyses of capillary EC lysates were performed as previously described by us (Moses et al., 1999; Yan et al., 2001). Capillary EC were plated, synchronized and treated with an IC50 dose of Loop 6 as described above for cell cycle analysis. After 16 hours, cells exposed to bFGF alone or bFGF and Loop 6 were rinsed in PBS and lysed directly in the culture dish by addition of 500 μl of lysis buffer (1% SDS in 10 mM Tris-Hcl, pH 7.4). Collected lysates were boiled for 5 minutes, mixed by vortexing and then placed on ice. Samples were repeatedly passed through a 22-gauge syringe needle in order to shear the DNA. The samples were then centrifuged, and the supernatant collected. Protein concentration of the lysates was determined using the MicroBCA method (Pierce, Rockford, Ill.). Equal amounts of protein were loaded unto 12% SDS-PAGE gels under reducing conditions, resolved by electrophoresis and subsequently transferred to nitrocellulose using a TransBlot apparatus (BioRad). […] Labeled proteins were detected using Supersignal West Pico Chemiluminescence Substrate (Pierce).
(In general: A western blot detects proteins with antibodies after separation by electrophoresis.)

Data set [7] relates to bFGF-driven corneal neovascularization. The data set is described as follows: Mouse corneal pocket assay. Type of data set: in vivo. How it is done:
In vivo inhibition of angiogenesis was also tested using the mouse corneal pocket assay as previously described (O'Reilly et al., 1994; Moses et al., 1999). […] Each animal carried a pellet containing the test sample plus bFGF in one eye, and a control bFGF pellet in the contralateral eye. After six days, angiogenesis was evaluated using a slit lamp microscope, and each eye was photographed. The area of neovascularization for each cornea was calculated from the length of the vessels (VL) invading the cornea as well as the clock hours (CH) covered as described by the formula VL×CH×0.0628.

Data set [8] concerns activated type I collagenase. Put plainly: 14C-Collagen Film Assay of MMP-inhibitory activity. The conditions noted are these: T2C and EAT2N up to approximately 100-fold the IC50 of T2N. Type of data set: biochemical. How it is done: MMP-inhibitory activity was assessed using a quantitative ^14C-Collagen Film Assay, as previously described by us (Moses et al., 1990). Briefly, ^14C-labeled collagen was added to 96 well plates and allowed to polymerize. To determine inhibitory activity, wells were treated with a known amount of activated type I collagenase plus test sample or with collagenase alone, and the plates incubated at 37° C. for 2.5 hours to allow for release of ^14C by the enzyme. Supernantants were then analyzed in a Wallac Scintillation Counter, and percent inhibition of collagenolytic activity was calculated. An IC50 was defined as the amount of protein necessary to inhibit the proteolytic activity of collagenase by 50%.

Data set [9] concerns Capillary EC. The data set is described as follows: FGF competition assay. Type of data set: cell-based, bovine. The conditions noted are these: IC50 dose of Loop 6, increasing concentrations of bFGF. From the text: To further map the anti-proliferative activity of TIMP-2 within T2C, three peptides corresponding to various smaller domains of T2C were synthesized, purified and tested for their ability to inhibit bFGF-stimulated capillary EC proliferation in vitro. These domains and are depicted in FIG. 6A. […] Given that Loop 6 inhibits bFGF-driven endothelial cell proliferation, we asked whether Loop 6 could directly compete with bFGF.

On to “VIRAK: control peptide of sequence VIRAK (SEQ ID NO: 4), conserved sequence in the N-terminal domain of all TIMPs [reference compound]”, for which the “effect on bFGF-stimulated capillary EC proliferation” value in data set [1] (1 ng/ml bFGF, 72 hours) is “no inhibition of capillary EC proliferation”.
As for “T2-Tail: 19 amino acid peptide corresponding to the carboxy-terminal tail of TIMP-2, sequence AWYRGAAPPKQEFLDIEDP (SEQ ID NO: 3) [reference compound]”, the “effect on neovascularization in the CAM” value in data set [2] is reported as “Neither Loop 5 nor the T2-Tail peptides had any significant effect on neovascularization”. For the same molecule, the “effect on bFGF-stimulated capillary EC proliferation” value in data set [1] (1 ng/ml bFGF, 72 hours) is recorded as “had no effect”. Also, in the data set on Capillary EC [3], the “cells in G1” value amounted to 27.8% and the “cells in G2/M” value was 34.6%.
Consider “Loop 6: 24 amino acid peptide corresponding to Loop 6 of TIMP-2, sequence ECLWMDWVTEKNINGHQAKFFACI (SEQ ID NO: 1)”, for which, in data set [2], the “effect on neovascularization in the CAM” value was “resulted in avascular zones at doses comparable to those tested for T2C”. The “effect on bFGF-stimulated capillary EC proliferation” value in [1] (1 ng/ml bFGF, 72 hours) is “significantly inhibited capillary EC proliferation”. Moreover, in the data set with Capillary EC [4], the “induction of apoptosis (apoptotic nuclei)” value is “not an inducer of apoptosis”. In addition, the “proliferation of vascular smooth muscle cells” value in [5] was “did not inhibit the proliferation of vascular smooth muscle cells”. In addition, in data set [6], the “level of p27” value is “significantly increased” and the “levels of Cyclins D1, E or A” value was “No significant differences”. Further, the “suppression of bFGF-stimulated neovascularization” value in data set [7] (3 μg/eye, versus contralateral control eyes) is reported as ~80%. Also, the “inhibition of MMP activity” value in [8] is “neither T2C nor Loop 6 inhibit MMP activity”. Further, the “competition with bFGF” value with Capillary EC [9] is “not abrogated by increasing doses of bFGF”. In the data set on Capillary EC [3], the “cells in G1” value is on record as 45.6% and the “cells in G2/M” value worked out at 9.53%. In addition, the “number of cells in S-phase” value in the data set with Capillary EC [3] (IC50 dose) was “did not change significantly”.
As for “Loop 5: 10 amino acid peptide corresponding to Loop 5 of TIMP-2, sequence TRCPMIPCYI (SEQ ID NO: 2) [reference compound]”, in data set [2], the “effect on neovascularization in the CAM” value is “Neither Loop 5 nor the T2-Tail peptides had any significant effect on neovascularization”. Further, the “effect on bFGF-stimulated capillary EC proliferation” value in data set [1] (1 ng/ml bFGF, 72 hours) is listed as “stimulated the proliferation of capillary EC”.

B1: T2C: recombinant His-tagged TIMP-2 domain composed of the three C-terminal disulfide-bonded loops (~8.5 kD), expressed in Pichia pastoris (protein)
chain: CKITRCPMIPCYISSPDECLWMDWVTEKNINGHQAKFFACIKRSDGSCAWYRGAAPPKQEFLDIEDP
modifications: disulfide (positions not given here); also: His tag, disulfide pairing not given here
notes: recombinant His-tagged TIMP-2 domain composed of the three C-terminal disulfide-bonded loops (~8.5 kD), expressed in Pichia pastoris
Turning to B1, in data set [2], the “effect on neovascularization in the CAM” value is listed as “decrease in neovascularization” and the “lowest dose producing avascular zones” value turned out to be 112 pmol per egg. In addition, in [1], the “cytotoxicity to capillary EC” value was “no evidence of cytotoxicity”. Moreover, the IC50 in [1] (1 ng/ml bFGF, 72 hours, read-out: IC50 of inhibition of capillary EC proliferation) is ~140 nM. The “reduction of bFGF-driven corneal neovascularization” value in [7] (5 μg/eye, versus contralateral control eye with only bFGF, six days) was 87%. Further, the “inhibition of MMP activity” value in data set [8] is “No significant inhibition of MMP activity”.

Values taken from patent publication US7371812B2, “Antiangiogenic peptides” (Children's Medical Center Corporation, priority 2003, dated 2008).
